Assay [1] concerns the target T1, DNA polymerase alpha catalytic subunit (Homo sapiens) (UniProt P09884).
T1 sequence (whole entry): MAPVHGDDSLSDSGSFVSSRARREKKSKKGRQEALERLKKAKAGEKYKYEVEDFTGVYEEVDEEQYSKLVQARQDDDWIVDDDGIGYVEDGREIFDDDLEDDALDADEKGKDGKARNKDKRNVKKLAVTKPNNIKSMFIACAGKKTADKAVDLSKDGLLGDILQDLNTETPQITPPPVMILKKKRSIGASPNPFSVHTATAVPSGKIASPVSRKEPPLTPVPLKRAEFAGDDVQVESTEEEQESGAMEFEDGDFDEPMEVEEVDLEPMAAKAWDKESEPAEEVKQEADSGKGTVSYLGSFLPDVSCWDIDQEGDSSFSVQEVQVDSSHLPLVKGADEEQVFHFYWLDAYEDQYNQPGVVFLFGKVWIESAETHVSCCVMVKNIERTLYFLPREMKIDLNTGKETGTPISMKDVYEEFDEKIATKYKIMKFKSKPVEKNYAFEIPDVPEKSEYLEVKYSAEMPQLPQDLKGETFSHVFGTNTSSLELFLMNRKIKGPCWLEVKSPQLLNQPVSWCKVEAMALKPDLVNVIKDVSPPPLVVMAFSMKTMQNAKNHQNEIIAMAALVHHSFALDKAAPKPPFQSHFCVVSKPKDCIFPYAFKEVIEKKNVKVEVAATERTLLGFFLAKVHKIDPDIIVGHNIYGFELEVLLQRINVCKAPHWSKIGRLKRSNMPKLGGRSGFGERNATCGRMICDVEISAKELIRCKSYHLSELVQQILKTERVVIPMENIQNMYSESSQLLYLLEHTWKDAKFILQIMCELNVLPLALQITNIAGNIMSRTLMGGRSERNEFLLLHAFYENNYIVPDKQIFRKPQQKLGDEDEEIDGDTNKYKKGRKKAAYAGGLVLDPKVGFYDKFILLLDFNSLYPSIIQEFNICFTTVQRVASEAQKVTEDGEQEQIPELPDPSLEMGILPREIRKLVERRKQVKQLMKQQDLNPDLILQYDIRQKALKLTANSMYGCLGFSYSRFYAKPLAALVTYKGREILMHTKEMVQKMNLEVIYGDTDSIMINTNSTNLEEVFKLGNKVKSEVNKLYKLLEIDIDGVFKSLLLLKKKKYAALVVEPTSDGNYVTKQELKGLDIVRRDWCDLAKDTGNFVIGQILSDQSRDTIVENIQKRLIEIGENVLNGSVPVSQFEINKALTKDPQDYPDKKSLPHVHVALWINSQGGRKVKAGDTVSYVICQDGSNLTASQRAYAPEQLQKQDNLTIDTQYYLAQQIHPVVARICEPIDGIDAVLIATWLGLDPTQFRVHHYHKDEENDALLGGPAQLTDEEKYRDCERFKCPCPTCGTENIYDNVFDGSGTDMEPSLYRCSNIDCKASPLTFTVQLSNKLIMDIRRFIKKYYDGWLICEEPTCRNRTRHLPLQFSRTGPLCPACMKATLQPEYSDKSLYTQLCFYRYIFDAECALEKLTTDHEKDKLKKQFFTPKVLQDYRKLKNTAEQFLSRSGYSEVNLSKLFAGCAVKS
The assay can be described thus: Inhibition of recombinant POLA1 (unknown origin) using 5-Fluorescein-rGrGrArArArGrGrArCrGrArArArCrA-3 as substrate at 10 to 50 uM and measured by primer extension assay. The following applies: dose 10-50 µM.

Assay [2] concerns NCI-H460. In words: Induction of DNA damage in human NCI-H460 cells at 0.1 to 0.4 uM assessed as increase in p-H2AX levels and measured by Western blot analysis. The class given is functional, cell-based. Conditions: dose 0.1-0.4 µM. Background: A western blot detects proteins with antibodies after separation by electrophoresis.
In assay [3] the test system is NCI-H460. The assay can be described thus: Antiproliferative activity against human NCI-H460 cells at 0.1 to 0.4 uM assessed as reduction in p-ERK1/2 level and measured by Western blot analysis. Format: functional, cell-based. Conditions: dose 0.1-0.4 µM.
The test system of assay [4] is NCI-H460. In words: Antiproliferative activity against human NCI-H460 cells at 0.1 to 0.4 uM assessed as reduction in PIN1 level and measured by Western blot analysis. The class given is functional, cell-based. Conditions: dose 0.1-0.4 µM.
The target of assay [5] is T2, Histone deacetylase 11 (Homo sapiens) (UniProt Q96DB2).
T2 sequence (whole entry): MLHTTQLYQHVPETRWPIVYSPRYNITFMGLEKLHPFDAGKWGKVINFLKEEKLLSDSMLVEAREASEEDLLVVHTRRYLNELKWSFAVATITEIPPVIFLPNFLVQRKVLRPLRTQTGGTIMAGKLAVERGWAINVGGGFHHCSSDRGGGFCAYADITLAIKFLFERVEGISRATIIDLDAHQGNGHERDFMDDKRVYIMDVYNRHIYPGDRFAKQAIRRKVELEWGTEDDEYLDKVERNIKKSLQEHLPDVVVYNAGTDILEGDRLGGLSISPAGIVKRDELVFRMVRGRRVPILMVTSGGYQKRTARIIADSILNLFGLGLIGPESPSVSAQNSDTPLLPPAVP
In words: Inhibition of HDAC11 in human NCI-H460 cells at 0.1 to 0.4 uM assessed as induction of p53 acetylation and measured by Western blot analysis. The class given is cell-based. Conditions: dose 0.1-0.4 µM.

The target in assay [6] is T2, Histone deacetylase 11 (Homo sapiens). The assay can be described thus: Inhibition of HDAC11 in human A2780 cells at 0.1 to 0.4 uM assessed as increase in p21 level and measured by Western blot analysis. The class given is cell-based. The following applies: dose 0.1-0.4 µM.
Another assay has as its system MDA-MB-231. In words: Antiproliferative activity against human MDA-MB-231 cells incubated for 24 hrs followed by incubating in drug-free medium for 48 hrs and measured by SRB assay. Format: functional, cell-based. For orientation: In SRB staining, fixed cells bind dye roughly in proportion to their protein.
Assay [7] deals with T2, Histone deacetylase 11 (Homo sapiens). In words: Inhibition of HDAC11 in human MM473 cells at 0.1 to 0.4 uM assessed as induction of p53 acetylation and measured by Western blot analysis. The class given is cell-based. Conditions: dose 0.1-0.4 µM.
Assay [8] concerns NCI-H460. The assay can be described thus: Induction of cell cycle arrest in human NCI-H460 cells assessed as accumulation of cells at S phase at 0.25 uM after 72 hrs by flow cytometry (reference value: 32.1%). The class given is functional. (A flow cytometer gives signals particle by particle.)
Assay [9] in a line: Induction of cell cycle arrest in human H460-R9A cells assessed as accumulation of cells at sub-G1 phase at 2.8 uM after 72 hrs by flow cytometry (reference value: 1.5%). Format: functional.
The test system of assay [10] is NCI-H460. The assay can be described thus: Down-regulation of POLA1 protein expression in human NCI-H460 cells at 0.25 uM measured by Western blot analysis. Format: functional, cell-based.
Assay [11] relates to NCI-H460. In words: Antitumor activity against human NCI-H460 cells xenografted in mouse assessed as tumor growth inhibition at 50 mg/kg, po qd administered 5 times a week for 3 to 4 weeks. Format: functional. Conditions: time 3-4 weeks, read-out: TGI.
For assay [12], the system named is NCI-H460. In words: Induction of cell cycle arrest in human NCI-H460 cells assessed as accumulation of cells at sub-G1 phase at 0.12 uM after 72 hrs by flow cytometry (reference value: 1.1%). The class given is functional.
The nature of assay [13]: Induction of cell cycle arrest in human H460-R9A cells assessed as accumulation of cells at G2/M phase at 2.2 uM after 72 hrs by flow cytometry (reference value: 15.4%). Format: functional.
A further assay has as its system H460-R9A. The assay can be described thus: Antiproliferative activity against human H460-R9A cells at 0.75 to 12 uM after 72 hrs by MTT assay. The class given is functional, cell-based. The following applies: dose 0.75-12 µM.

Structures are written as SMILES. Active and inactive are the calls of the source. The calls are words filed in the database; no cut-off is given here.

On to `CC(Oc1ccc(-c2ccc(C=CC(=O)O)cc2)cc1C12CC3CC(CC(C3)C1)C2)C(=O)NO` (stereo unspecified), for which the inhibition entry in assay [1], in [5] and in assay [6] was “Active” throughout. Further, the outcome in the assay on NCI-H460 [2], in the assay with NCI-H460 [3] and with NCI-H460 [4] was Active.
As a reminder, the IC50 is the point on the concentration scale where inhibition reaches its midpoint. Low values mean inhibition by little substance, high ones a need for much substance. Take `O=C(O)C=Cc1ccc(-c2ccc(OCC(=O)NO)c(C34CC5CC(CC(C5)C3)C4)c2)cc1`: the IC50 in the assay with MDA-MB-231 is 1900 nM. Moreover, the inhibition result in [1], in assay [5] and in assay [7] was “Active” each time. For the same compound, the outcome in the assay with NCI-H460 [2], in the assay with NCI-H460 [3], in the assay with NCI-H460 [4] and with NCI-H460 [10] was Active. The Activity is listed as 80.9% in the assay with NCI-H460 [8] and 37.8% in assay [9]. Besides, the inhibition in vivo at 50 mg/kg in the assay with NCI-H460 [11] was found to be 61%.
In the case of `O=C(O)C=Cc1ccc(-c2ccc(O)c(C34CC5CC(CC(C5)C3)C4)c2)cc1`, the IC50 in the assay on MDA-MB-231 came out at 1100 nM. Moreover, the Activity with NCI-H460 [12] turned out to be 12.4%; in assay [13] it was 13.8%. Also, in the assay with H460-R9A, the result was Active.

The values are drawn from ChEMBL document CHEMBL5154648, “Antitumor activity of novel POLA1-HDAC11 dual inhibitors” (Eur J Med Chem, 2022).
